Laboratory results reported in PMC10138721, “Investigation of the Compatibility between Warheads and Peptidomimetic Sequences of Protease Inhibitors—A Comprehensive Reactivity and Selectivity Study” (International Journal of Molecular Sciences, 2023).
Like-named read-outs stand apart in the source and are kept apart here.

Assays:
Type in all cases: biochemical
rhodesain = rhodesain (Trypanosoma brucei rhodesiense, UniProt Q95PM0); assay: Fluorometric inhibition assay, rhodesain; details: for kinact: read-out: kinact, Rhodesain
rhodesain, sequence (Q95PM0 entry or part of it): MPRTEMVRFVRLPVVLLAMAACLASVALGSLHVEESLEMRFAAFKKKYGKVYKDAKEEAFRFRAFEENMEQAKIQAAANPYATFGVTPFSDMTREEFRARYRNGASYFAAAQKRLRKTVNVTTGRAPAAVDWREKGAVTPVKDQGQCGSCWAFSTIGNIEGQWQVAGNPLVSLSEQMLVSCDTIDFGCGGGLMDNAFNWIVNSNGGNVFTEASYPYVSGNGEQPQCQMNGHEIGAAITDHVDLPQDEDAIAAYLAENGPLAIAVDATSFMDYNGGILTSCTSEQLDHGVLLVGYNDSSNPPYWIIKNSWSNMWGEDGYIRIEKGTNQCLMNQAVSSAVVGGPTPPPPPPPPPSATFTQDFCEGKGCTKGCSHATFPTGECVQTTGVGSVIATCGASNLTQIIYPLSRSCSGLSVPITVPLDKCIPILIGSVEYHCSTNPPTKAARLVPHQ

human cathepsin S (CatS) = molecular target: T1, human cathepsin S (CatS) (Homo sapiens, UniProt P25774); assay: Fluorometric inhibition assay, cathepsin S; details: for kinact: read-out: kinact, CatS
T1 construct: purchased Sigma Aldrich
T1 sequence (P25774 115-331): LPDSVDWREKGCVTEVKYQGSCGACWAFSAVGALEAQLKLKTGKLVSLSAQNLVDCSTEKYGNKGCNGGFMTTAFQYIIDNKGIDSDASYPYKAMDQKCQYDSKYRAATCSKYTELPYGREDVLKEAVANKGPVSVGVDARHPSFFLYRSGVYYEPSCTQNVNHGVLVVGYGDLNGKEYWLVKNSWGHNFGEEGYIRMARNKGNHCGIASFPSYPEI

[1] = molecular target: SARS-CoV-2 main protease (M^pro) (Severe acute respiratory syndrome coronavirus 2, UniProt P0DTD1); assay: Fluorometric (FRET) inhibition assay, SARS-CoV-2 M^pro; details: for activity against M^pro, in words: initial screen at 20 µM, cut-off 80% inhibition
[2] = Table S1; a) calculated from IC50 with Cheng–Prusoff, irreversible inhibitors from kobs fits, n.a. = not active at 20 µM, read-out: Ki, Rhodesain
[3] = Table S1, irreversible inhibitors
[4] = Table S1; a) calculated from IC50 with Cheng–Prusoff, irreversible inhibitors from kobs fits, n.a. = not active at 20 µM, * unstable towards DTT, read-out: Ki, CatS

Q: Which “activity against rhodesain, in words” value (rhodesain) does the source give for `O=C(N[C@@H](Cc1ccccc1)C(=O)N[C@@H](CCc1ccccc1)C(=O)N[C@H]1CN(c2ccccc2)C1=O)OCc1ccccc1` [compound 24] here?
A: Its value is “inactive at 20 µM”.

Q: What does the source list for `CCOC(=O)C=CC(=O)C(COCc1ccccc1)NC(=O)C(CC1CCCCC1)NC(=O)N1CCOCC1` (stereo not drawn) [compound 40]?
A: Ki (human cathepsin S (CatS); Ki, CatS): 22 ± 4 nM; kinact (human cathepsin S (CatS)): 0.0023 ± 7e-05 s⁻¹; Ki (rhodesain; Ki, Rhodesain): 35 ± 9 nM; kinact (rhodesain): 0.003 ± 0.0001 s⁻¹

Q: Which Ki (human cathepsin S (CatS); Ki, CatS) does the source give for `O=C(NC(COCc1ccccc1)C(=O)c1nc2ccccc2s1)C(CC1CCCCC1)NC(=O)N1CCOCC1` (stereo not drawn) [compound 42] here?
A: The Ki was 233 ± 24 nM.

Q: And the Ki (human cathepsin S (CatS); pKi, Cathepsin S inhibition)?
A: The Ki was 316 nM.

Q: What about the “activity against rhodesain, in words” value (rhodesain) of the same compound?
A: Its value is “submicromolar affinity”.

Q: What about the Ki (rhodesain; Ki, Rhodesain) of the same compound?
A: Its Ki is 324 ± 89 nM.

Q: For `CCOC(=O)/C=C/C(=O)[C@H](C[C@@H]1CCNC1=O)NC(=O)[C@H](CC(C)C)NC(=O)c1cc2c(OC)cccc2[nH]1` [compound 81], which “activity against CatS, in words” value (human cathepsin S (CatS); initial screen at 20 µM, cut-off 80% inhibition) is on record?
A: The value was “essentially inactive”.

Q: And the Ki (rhodesain; [2])?
A: Its Ki is 99 ± 24 nM.

Q: What about the kinact (rhodesain; [3]) of the same compound?
A: Its kinact is 0.006 ± 0.0009 s⁻¹.

Q: Which Ki (human cathepsin S (CatS); pKi, Cathepsin S inhibition) does the source give for `O=C(NC(C=CS(=O)(=O)c1ccccc1)COCc1ccccc1)C(CC1CCCCC1)NC(=O)N1CCOCC1` (stereo not drawn) [compound 35] here?
A: The Ki was 3.16 nM.

Q: What about the kinact (human cathepsin S (CatS)) of the same compound?
A: Its kinact is 0.0202 ± 0.0006 s⁻¹.

Q: What about the Ki (rhodesain; Ki, Rhodesain) of the same compound?
A: Its Ki is 22 ± 2 nM.

Q: What about the kinact (rhodesain) of the same compound?
A: The kinact was 0.006 ± 0.0004 s⁻¹.

Q: How did the “activity against M^pro, in words” value [1] turn out when `COc1cccc2[nH]c(C(=O)N[C@@H](CC(C)C)C(=O)N[C@@H](C[C@@H]3CCNC3=O)C(=O)NC3CN(c4ccccc4)C3=O)cc12` (stereo partly drawn) [compound 96] was run?
A: Its value is “inactive at 20 µM”.

Q: What does the source list for `COc1cccc2[nH]c(C(=O)N[C@@H](CC(C)C)C(=O)N[C@H](C#N)C[C@@H]3CCNC3=O)cc12` [compound 84]?
A: activity against M^pro, in words [1]: displayed inhibitory activity; Ki (human cathepsin S (CatS); [4]): 104 ± 9 nM; Ki (rhodesain; [2]): 42 ± 5 nM

Q: `COc1cccc2[nH]c(C(=O)N[C@@H](CC(C)C)C(=O)N[C@H](/C=C/S(=O)(=O)c3ccccc3)C[C@@H]3CCNC3=O)cc12` [compound 93] was tested. Which Ki [1] did it give?
A: Its Ki is 3530 ± 1110 nM.

Q: What about the “activity against M^pro, in words” value [1] of the same compound?
A: The value was “displayed inhibitory activity”.

Q: What about the kinact ([1]; read-out: kinact, MPro) of the same compound?
A: Its kinact is 0.0137 ± 0.0061 s⁻¹.

Q: And the Ki (human cathepsin S (CatS); [4])?
A: The Ki was 330 ± 65 nM.

Q: What about the kinact (human cathepsin S (CatS); [3]) of the same compound?
A: The kinact was 0.0087 ± 0.0001 s⁻¹.

Q: What about the Ki (human cathepsin S (CatS); calculated from Ki, –log10(Ki/M), read-out: pKi, Cathepsin S inhibition (converted)) of the same compound?
A: The Ki was 398 nM.

Q: And the Ki (rhodesain; [2])?
A: The Ki was 2000 ± 604 nM.

Q: What about the kinact (rhodesain; [3]) of the same compound?
A: Its kinact is 0.029 ± 0.008 s⁻¹.

Q: For `CC(=O)NCC(=O)NC(C(=O)N[C@@H](C)C(=O)N[C@H](/C=C/S(=O)(=O)c1ccccc1)CCCNC(=N)N)[C@H](C)O` (stereo partly drawn) [compound 106], which “activity against CatS, in words” value (human cathepsin S (CatS)) is on record?
A: The value was “not active at 20 µM”.

Q: What about the “activity against rhodesain, in words” value (rhodesain) of the same compound?
A: Its value is “inactive”.

Q: For `N#CC(COCc1ccccc1)NC(=O)C(CC1CCCCC1)NC(=O)N1CCOCC1` (stereo not drawn) [compound 30], which Ki (rhodesain; Ki, Rhodesain) is on record?
A: The Ki was 21 ± 2 nM.

Q: `COc1cccc2[nH]c(C(=O)N[C@@H](CC(C)C)C(=O)N[C@H](/C=C/[N+](=O)[O-])C[C@@H]3CCNC3=O)cc12` [compound 88] was tested. Which Ki [1] did it give?
A: The Ki was 2200 ± 184 nM.

Q: What about the “activity against M^pro, in words” value [1] of the same compound?
A: The value was “displayed inhibitory activity”.

Q: What about the Ki (human cathepsin S (CatS); [4]) of the same compound?
A: The Ki was 388 ± 277 nM.

Q: What about the Ki (rhodesain; calculated from Ki, –log10(Ki/M), read-out: pKi, Rhodesain inhibition (converted)) of the same compound?
A: Its Ki is 2 nM.

Q: How did the Ki (human cathepsin S (CatS); Ki, CatS) turn out when `CC(C)C[C@@H](/C=C/S(=O)(=O)c1ccccc1)NC(=O)[C@H](Cc1ccccc1)NC(=O)c1cnccn1` [compound 58] was run?
A: The Ki was 126 ± 71 nM.

Q: What about the kinact (human cathepsin S (CatS)) of the same compound?
A: Its kinact is 0.013 ± 0.002 s⁻¹.

Q: And the Ki (rhodesain; Ki, Rhodesain)?
A: The Ki was 331 ± 41 nM.

Q: And the kinact (rhodesain)?
A: The kinact was 0.019 ± 0.001 s⁻¹.

Q: How did the Ki (human cathepsin S (CatS); Ki, CatS) turn out when `O=C(NC(C=C(F)S(=O)(=O)c1ccccc1)COCc1ccccc1)C(CC1CCCCC1)NC(=O)N1CCOCC1` (stereo not drawn) [compound 36] was run?
A: Its Ki is 3210 ± 612 nM.

Q: Which Ki (human cathepsin S (CatS); Ki, CatS) does the source give for `O=C(NC1CN(c2ccccc2)C1=O)C(COCc1ccccc1)NC(=O)C(CC1CCCCC1)NC(=O)N1CCOCC1` (stereo not drawn) [compound 45] here?
A: The Ki was 860 ± 130 nM.

Q: And the kinact (human cathepsin S (CatS))?
A: The kinact was 0.00046 ± 2e-05 s⁻¹.
